In general, IC50 refers to the midpoint of a concentration-inhibition curve.

SMILES strings stand for the structures. Bridge positions count the residues as written; N and C are the ends. Square brackets hold non-standard residues; d marks the D form. Peptide text beside a SMILES is read from it. * marks the point of attachment. ξ: configuration not given here. Phe(4-COOH) = N[C@@H](Cc1ccc(C(=O)O)cc1)C(=O)O; Bip = N[C@@H](Cc1ccc(-c2ccccc2)cc1)C(=O)O; Phe(3-Me) = Cc1cccc(C[C@H](N)C(=O)O)c1; Phe(4-F) = N[C@@H](Cc1ccc(F)cc1)C(=O)O; NH(CH2)12COOH = O=C(O)CCCCCCCCCCCCN*; Cyclopropanecarbonyl = O=C(C1CC1)*; Val(3-OH) = CC(C)(O)[C@H](N)C(=O)O; Pip(4-aza) = O=C(O)[C@@H]1CNCCN1; hArg = N=C(N)NCCCC[C@H](N)C(=O)O; 4Pal = N[C@@H](Cc1ccncc1)C(=O)O; Cha = N[C@@H](CC1CCCCC1)C(=O)O; Cit = NC(=O)NCCC[C@H](N)C(=O)O; Thr(3ξ) = CC(O)[C@H](N)C(=O)O; 12Ado = NCCCCCCCCCCCC(=O)O; hSer = N[C@@H](CCO)C(=O)O; Carboxymethyl = O=C(O)C*; Nle = CCCC[C@H](N)C(=O)O; Orn = NCCC[C@H](N)C(=O)O; Aun = NCCCCCCCCCCC(=O)O; Dab = NCC[C@H](N)C(=O)O; Nva = CCC[C@H](N)C(=O)O; Dap = NC[C@H](N)C(=O)O; AEEA = NCCOCCOCC(=O)O; Ac3c = NC1(C(=O)O)CC1

T1 sequence (Q15116 25-288): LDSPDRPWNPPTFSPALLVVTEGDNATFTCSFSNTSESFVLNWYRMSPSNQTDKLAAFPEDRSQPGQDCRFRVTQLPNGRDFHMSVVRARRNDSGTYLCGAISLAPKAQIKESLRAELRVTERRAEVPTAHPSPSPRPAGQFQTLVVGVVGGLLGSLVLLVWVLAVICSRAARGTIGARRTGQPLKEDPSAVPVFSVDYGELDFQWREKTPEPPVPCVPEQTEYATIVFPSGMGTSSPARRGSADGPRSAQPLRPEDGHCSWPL

This assay addresses T1, PD-1/PD-L1 interaction (PE-labeled human PD-L1-Ig binding to Jurkat cell line over-expressing human PD-1) (Homo sapiens, UniProt Q15116).
T1 construct: expressed in transfected cells; host or cells: Jurkat
Kind of assay: Jurkat-PD-1 Cell Binding High-Content Screening Assay (CBA). It counts as cell-based. Conditions: Jurkat cell line over-expressing human PD-1; PE-labeled PD-L1-Ig 20 nM final; read-out: Jurkat hPD1-PDL1 IC50. The method in brief:
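Read-out is high-content imaging of cell-bound phycoerythrin-tagged PD-L1-Ig on fixed, Hoechst-counterstained Jurkat cells that over-express human PD-1. Compound exposure lasts 2 h at 37° C before the labeled ligand (20 nM final) is added for a further hour.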
Take `CC(C)C[C@H]1NC(=O)[C@H](CCCN)NC(=O)[C@H](C(C)C)NC(=O)[C@H](Cc2ccc(-c3ccccc3)cc2)NC(=O)[C@H](C(C)C)NC(=O)[C@H](Cc2c[nH]c3ccccc23)NC(=O)[C@H](CC(=O)O)NC(=O)[C@H](Cc2ccc(OCC(=O)O)cc2)NC(=O)[C@H](CCCCNC(=N)N)NC(=O)CSC[C@@H](C(=O)NCC(=O)NCCOCCOCC(=O)N[C@@H](CCCN)C(=O)NCCCCCCCCCCCCC(=O)O)NC(=O)[C@H](CO)NC(=O)[C@H](C(C)C)NC(=O)[C@H](CC2CCCCC2)NC(=O)[C@H](CCN)NC1=O` [Compound 3037] ({CH2CO}-[hArg]Y(Carboxymethyl)DWV[Bip]V[Orn][dL][Dab][Cha]VSCG[AEEA][Orn]-{NH(CH2)12COOH}; thioether N-14): the IC50 was found to be 16.5 nM. The same measure for `CC[C@H](C)[C@@H]1NC(=O)[C@H](Cc2ccc(-c3ccccc3)cc2)NC(=O)[C@H](C(C)C)NC(=O)[C@H](Cc2cccc(C)c2)NC(=O)[C@H](CC(=O)O)NC(=O)[C@H](Cc2ccc(C(=O)O)cc2)NC(=O)[C@H](Cc2ccncc2)NC(=O)CSC[C@@H](C(=O)NCCOCCOCC(=O)N[C@@H](CCN)C(=O)NCCCCCCCCCCC(=O)O)NC(=O)[C@H]([C@@H](C)O)NC(=O)[C@H](C(C)C)NC(=O)[C@H](CC2CCCCC2)NC(=O)[C@H](CCN)NC(=O)[C@@H](CC(C)C)NC(=O)[C@H](CCCN)NC1=O` [Compound 1189] ({CH2CO}-[4Pal][Phe(4-COOH)]D[Phe(3-Me)]V[Bip]I[Orn][dL][Dab][Cha]VTC[AEEA][Dab][Aun]-OH; thioether N-14): 23.6 nM; for `CC(C)C[C@H]1NC(=O)[C@H](CCCN)NC(=O)[C@H](C(C)C)NC(=O)[C@H](Cc2ccc(-c3ccccc3)cc2)NC(=O)[C@H](C(C)C)NC(=O)[C@H](Cc2c[nH]c3ccccc23)NC(=O)[C@H](CC(=O)O)NC(=O)[C@H](Cc2ccc(OCC(=O)O)cc2)NC(=O)[C@H](CCCCNC(=N)N)NC(=O)CSC[C@@H](C(=O)NCC(=O)NCCOCCOCC(=O)N[C@@H](CCCN)C(=O)NCCCCCCCCCCC(=O)O)NC(=O)[C@H](CCCCN)NC(=O)[C@H](C(C)C)NC(=O)[C@H](CC2CCCCC2)NC(=O)[C@H](CC(N)=O)NC1=O` [Compound 3204] ({CH2CO}-[hArg]Y(Carboxymethyl)DWV[Bip]V[Orn][dL]N[Cha]VKCG[AEEA][Orn][Aun]-OH; thioether N-14): 12.7 nM. The same measure for `Cc1cccc(C[C@@H]2NC(=O)[C@H](CC(=O)O)NC(=O)[C@H](Cc3ccc(C(=O)O)cc3)NC(=O)[C@H](Cc3ccncc3)NC(=O)CSC[C@@H](C(=O)NC3(C(=O)NCCCCCCCCCCC(=O)O)CC3)NC(=O)[C@H]([C@@H](C)O)NC(=O)[C@H](C(C)C)NC(=O)[C@H](CC3CCCCC3)NC(=O)[C@H](CCN)NC(=O)[C@@H](CC(C)C)NC(=O)[C@H](CCCN)NC(=O)[C@H](Cc3ccc(OCC(=O)O)cc3)NC(=O)[C@H](Cc3ccc(-c4ccccc4)cc3)NC(=O)[C@H](Cc3ccc(OCC(=O)O)cc3)NC2=O)c1` [Compound 2167] ({CH2CO}-[4Pal][Phe(4-COOH)]D[Phe(3-Me)]Y(Carboxymethyl)[Bip]Y(Carboxymethyl)[Orn][dL][Dab][Cha]VTC[Ac3c][Aun]-OH; thioether N-14): 9.4 nM.

For `CCC[C@@H]1NC(=O)CSC[C@@H](C(=O)N[C@@H](CCN)C(=O)NCCOCCOCC(=O)NCCCCCCCCCCCCC(=O)O)NC(=O)[C@H](CO)NC(=O)[C@H](C(C)(C)O)NC(=O)[C@H](CC2CCCCC2)NC(=O)[C@H](CCN)NC(=O)[C@@H](CC(C)C)NC(=O)[C@H](CCCN)NC(=O)[C@H](Cc2ccc(OCC(=O)O)cc2)NC(=O)[C@H](Cc2ccc(-c3ccccc3)cc2)NC(=O)[C@H](Cc2ccc(OCC(=O)O)cc2)NC(=O)[C@H](Cc2cccc(C)c2)NC(=O)[C@H](CC(=O)O)NC(=O)[C@H](Cc2ccc(OCC(=O)O)cc2)NC1=O` [Compound 2867] ({CH2CO}-[Nva]Y(Carboxymethyl)D[Phe(3-Me)]Y(Carboxymethyl)[Bip]Y(Carboxymethyl)[Orn][dL][Dab][Cha][Val(3-OH)]SC[Dab][AEEA]-{NH(CH2)12COOH}; thioether N-14), the IC50 worked out at 11.1 nM.

As for `Cc1cccc(C[C@@H]2NC(=O)[C@H](CC(=O)O)NC(=O)[C@H](Cc3ccc(OCC(=O)O)cc3)NC(=O)[C@H](CN)NC(=O)CSC[C@@H](C(=O)N[C@@H](CCN)C(=O)NCCOCCOCC(=O)NCCCCCCCCCCC(=O)O)NC(=O)[C@H](CCCN)NC(=O)[C@H](C(C)C)NC(=O)[C@H](CC3CCCCC3)NC(=O)[C@H](CCN)NC(=O)[C@@H](CC(C)C)NC(=O)[C@H](CCCN)NC(=O)[C@H](Cc3ccc(O)cc3)NC(=O)[C@H](Cc3ccc(-c4ccccc4)cc3)NC(=O)[C@H](Cc3ccc(F)cc3)NC2=O)c1` [Compound 2070] ({CH2CO}-[Dap]Y(Carboxymethyl)D[Phe(3-Me)][Phe(4-F)][Bip]Y[Orn][dL][Dab][Cha]V[Orn]C[Dab][AEEA][Aun]-OH; thioether N-14), the IC50 was 11.6 nM. On to `CC(C)C[C@@H]1NC(=O)[C@H](Cc2c[nH]c3ccccc23)NC(=O)[C@H](CC(=O)O)NC(=O)[C@H](Cc2ccncc2)NC(=O)[C@H](Cc2ccc(OCC(=O)O)cc2)NC(=O)CSC[C@@H](C(=O)N2CCNC[C@H]2C(=O)NCCCCCCCCCCC(=O)O)NC(=O)[C@H](C(C)O)NC(=O)[C@H](C(C)C)NC(=O)[C@H](CC2CCCCC2)NC(=O)[C@H](CCN)NC(=O)[C@@H](CC(C)C)NC(=O)[C@H](CCCN)NC(=O)[C@H](C(C)C)NC(=O)[C@H](Cc2ccc(-c3ccccc3)cc2)NC1=O` (stereo partly drawn) [Compound 1223] ({CH2CO}-Y(Carboxymethyl)[4Pal]DWL[Bip]V[Orn][dL][Dab][Cha]V[Thr(3ξ)]C[Pip(4-aza)][Aun]-OH; thioether N-14), for which the IC50 amounted to 135 nM. Under `CC(C)C[C@H]1NC(=O)[C@H](CCCN)NC(=O)[C@H](C(C)C)NC(=O)[C@H](Cc2ccc(-c3ccccc3)cc2)NC(=O)[C@H](C(C)C)NC(=O)[C@H](Cc2c[nH]c3ccccc23)NC(=O)[C@H](CC(=O)O)NC(=O)[C@H](Cc2ccc(OCC(=O)O)cc2)NC(=O)[C@H](CCCCNC(=N)N)NC(=O)CSC[C@@H](C(=O)NCC(=O)NCCOCCOCC(=O)N[C@@H](CCCN)C(=O)NCCCCCCCCCCC(=O)O)NC(=O)[C@H](CN)NC(=O)[C@H](C(C)C)NC(=O)[C@H](CC2CCCCC2)NC(=O)[C@H](CCN)NC1=O` [Compound 3196] ({CH2CO}-[hArg]Y(Carboxymethyl)DWV[Bip]V[Orn][dL][Dab][Cha]V[Dap]CG[AEEA][Orn][Aun]-OH; thioether N-14) stands 11.6 nM; under `CC(C)C[C@@H]1NC(=O)[C@H](Cc2c[nH]c3ccccc23)NC(=O)[C@H](CC(=O)O)NC(=O)[C@H](Cc2ccc(C(=O)O)cc2)NC(=O)[C@H](Cc2ccc(OCC(=O)O)cc2)NC(=O)CSC[C@@H](C(=O)N[C@@H](CCN)C(=O)NCCCCCCCCCCC(=O)O)NC(=O)[C@H](CCCNC(N)=O)NC(=O)[C@H](C(C)C)NC(=O)[C@H](CC2CCCCC2)NC(=O)[C@H](CCN)NC(=O)[C@@H](CC(C)C)NC(=O)[C@H](CCCN)NC(=O)[C@H](Cc2ccc(O)cc2)NC(=O)[C@H](Cc2ccc(-c3ccccc3)cc2)NC1=O` [Compound 1234] ({CH2CO}-Y(Carboxymethyl)[Phe(4-COOH)]DWL[Bip]Y[Orn][dL][Dab][Cha]V[Cit]C[Dab][Aun]-OH; thioether N-14), 39.8 nM. For `CC(C)C[C@H]1NC(=O)[C@H](CCCN)NC(=O)[C@H](C(C)C)NC(=O)[C@H](Cc2ccc(-c3ccccc3)cc2)NC(=O)[C@H](C(C)C)NC(=O)[C@H](Cc2c[nH]c3ccccc23)NC(=O)[C@H](CC(=O)O)NC(=O)[C@H](Cc2ccc(OCC(=O)O)cc2)NC(=O)[C@H](CCCNC(=N)N)NC(=O)CSC[C@@H](C(=O)N[C@@H](CCCN)C(=O)NCCCCCCCCCCC(=O)O)NC(=O)[C@H](CCO)NC(=O)[C@H](C(C)C)NC(=O)[C@H](CC2CCCCC2)NC(=O)[C@H](CCN)NC1=O` [Compound 3339] ({CH2CO}-RY(Carboxymethyl)DWV[Bip]V[Orn][dL][Dab][Cha]V[hSer]C[Orn][Aun]-OH; thioether N-14), the IC50 was found to be 8.7 nM. Under `Cc1cccc(C[C@@H]2NC(=O)[C@H](CC(=O)O)NC(=O)[C@H](Cc3ccc(OCC(=O)O)cc3)NC(=O)[C@H](CCCNC(=O)C3CC3)NC(=O)CSC[C@@H](C(=O)N[C@@H](CCCN)C(=O)N[C@@H](CO)C(=O)NCCCCCCCCCCCC(=O)O)NC(=O)[C@H](CO)NC(=O)[C@H](CCCCN)NC(=O)[C@H](CC3CCCCC3)NC(=O)[C@H](CCN)NC(=O)[C@@H](CC(C)C)NC(=O)[C@H](CCCN)NC(=O)[C@H](Cc3ccc(OCC(=O)O)cc3)NC(=O)[C@H](Cc3ccc(-c4ccccc4)cc3)NC(=O)[C@H](Cc3ccc(OCC(=O)O)cc3)NC2=O)c1` [Compound 3614] ({CH2CO}-[Orn](Cyclopropanecarbonyl)Y(Carboxymethyl)D[Phe(3-Me)]Y(Carboxymethyl)[Bip]Y(Carboxymethyl)[Orn][dL][Dab][Cha]KSC[Orn]S[12Ado]-OH; thioether N-14) stands 9.7 nM; under `CCCC[C@@H]1NC(=O)CSC[C@@H](C(=O)N[C@@H](CCN)C(=O)NCCOCCOCC(=O)NCCOCCOCC(=O)NCCCCCCCCCCCCC(=O)O)NC(=O)[C@H](CO)NC(=O)[C@H](C(C)(C)O)NC(=O)[C@H](CC2CCCCC2)NC(=O)[C@H](CCN)NC(=O)[C@@H](CC(C)C)NC(=O)[C@H](CCCN)NC(=O)[C@H](Cc2ccc(OCC(=O)O)cc2)NC(=O)[C@H](Cc2ccc(-c3ccccc3)cc2)NC(=O)[C@H](Cc2ccc(OCC(=O)O)cc2)NC(=O)[C@H](Cc2cccc(C)c2)NC(=O)[C@H](CC(=O)O)NC(=O)[C@H](Cc2ccc(OCC(=O)O)cc2)NC1=O` [Compound 3812] ({CH2CO}-[Nle]Y(Carboxymethyl)D[Phe(3-Me)]Y(Carboxymethyl)[Bip]Y(Carboxymethyl)[Orn][dL][Dab][Cha][Val(3-OH)]SC[Dab][AEEA][AEEA]-{NH(CH2)12COOH}; thioether N-14), 13.3 nM.

These data come from patent publication US20260022142A1, “MACROCYCLIC IMMUNOMODULATORS” (Bristol-Myers Squibb Company, priority 2022, published 2026).
